Reference: patent US20250296942A1, “Phosphonate-Based Coordination Complexes and Methods of Preparation and Use Thereof” (University of Puerto Rico, priority 2021, published 2025)

Tests used:
[1] = tested on: human breast cancer MDA-MB-231 cell line; conditions: previously reported; cited from earlier work
[2] = Hydroxyapatite (HA) affinity/binding assay of 2,2′-BPBPA and nano-Ca@2,2′-BPBPA; conditions: for Amount (%) bound to HA, Mean: HA 20 mg, duplicate
Protocol: (§1) Affinity assays experiment. Synthetic HA was employed to explore the affinity of nano-Ca@2,2′-BPBPA to the bone microenvironment. HA (20 mg) was exposed to nano-Ca@2,2′-BPBPA (5 mL, 0.5 mg/mL). The 2,2′-BPBPA (0.5 mg/mL) and HA (20 mg) were used as control groups. All experimental and control groups were left under constant stirring (150 rpm) for 0-12 d. Finally, the supernatant was collected, centrifuged (5 min, 1500 rpm), and the absorbance was measured at λmax=299 nm of maximum absorption (1, 2, 3, 4, 7, 8, 9, 10, 11, 12 d) to determine the amount (%) of 2,2′-BPBPA bound to HA after each period. The experiment was performed in duplicate. Once the experiment was completed, HA, HA-2,2′-BPBPA, and HA-nano-Ca@2,2′-BPBPA were characterized by SEM-EDS and PXRD.
The affinity of nano-Ca@22′-BPBPA to the bone was investigated using hydroxyapatite (HA). The HA is the main constituent of the bone microenvironment; this mineral represents an ideal target when treating bone-related diseases.^45 The binding assay of the nano-Ca@2,2′-BPBPA to HA was performed in PBS at 37° C., the HA as a received reagent was exposed to this nano-BPCCs for 0-12 d. The binding assay for 2,2′-BPBPA to HA was determined as a control experiment. The affinity of these materials to HA was assessed by measuring the absorbance of the supernatant at the lambda max (λmax=299 nm) to quantify the decrease in the 2,2′-BPBPA concentration over time. Binding curves (FIG. 163A) reveal that 2,2′-BPBPA and the nano-Ca@2,2′-BPBPA presented between 32 to 37% binding to HA after 2 d. The ligand reaches about 90% of binding to HA after 7 d while the nano-Ca@2,2′-BPBPA offers a 93% of binding to this mineral after 8 d.
as §1, with “Binding assay with hydroxyapatite (HA).” for “Affinity assays experiment.”, “Experiment” for “The experiment”, “PXRD. Table 35 present the percentage (%) of 2,2′-BPBPA and nano-Ca@2,2′-BPBPA bound to HA in PBS. FIGS. 200-201 show the binding curves for 2,2′-BPBPA and nano-Ca@2,2′-BPBPA.” for “PXRD.”

maximum binding to HA ([2]; 0.5 mg/mL) [%] | time to reach maximum binding to HA ([2]; 0.5 mg/mL) [days] | Amount (%) bound to HA, Mean ([2]; 0.5 mg/mL, PBS, 1 d) [%] | Amount (%) bound to HA, Mean ([2]; 0.5 mg/mL, PBS, 2 d) [%] | Amount (%) bound to HA, Mean ([2]; 0.5 mg/mL, PBS, 3 d) [%] | Amount (%) bound to HA, Mean ([2]; 0.5 mg/mL, PBS, 4 d) [%] | Amount (%) bound to HA, Mean ([2]; 0.5 mg/mL, PBS, 7 d) [%] | Amount (%) bound to HA, Mean ([2]; 0.5 mg/mL, PBS, 8 d) [%] | Amount (%) bound to HA, Mean ([2]; 0.5 mg/mL, PBS, 11 d) [%] | Amount (%) bound to HA, Mean ([2]; 0.5 mg/mL, PBS, 12 d) [%] | bound to HA ([2]; PBS, 37 °C, 7 d) | Compound | IC50 [1] [µM]
– | – | – | – | – | – | – | – | – | – | – | N#Cc1ccc(C(c2ccc(C#N)cc2)n2cncn2)cc1 [LET, letrozole] | > 200
99 | 12 | 18 | 37 | 66 | 71 | 90 | 99 | 99 | 99 | about 90% | O=P(O)(O)c1ccc(-c2ccc(P(=O)(O)O)cn2)nc1 [2,2′-BPBPA, 2,2′-bipyridine-5,5′-bisphosphonic acid] | –
